Patent US20060079510A1, “Use of PARP-1 inhibitors for protecting tumorcidal lymphocytes from apoptosis” (priority 2004, published 2006)
“Also recorded” adds a separate entry of the source.

Assays:
melanoma cell lines = settings: histamine and IL-2 given prior to inoculation; cited from earlier work
[1] = system: peripheral blood lymphocytes; experiment: Oxidant-induced cell death in lymphocytes incubated with mononuclear phagocytes or hydrogen peroxide, flow cytometry; format: cell-based, human
Procedure: Peripheral venous blood was obtained as freshly prepared leukopacks from healthy blood donors at the Blood Centre, Sahlgren's Hospital, Göteborg, Sweden, to study the activation characteristics of cytotoxic lymphocytes in the presence and absence of MO, and ROM inhibitors. The blood (65 ml) was mixed with 92.5 ml Iscove's medium, 35 ml 6% Dextran (Kabi Pharmacia, Stockholm, Sweden) and 7.5 ml acid citrate dextrose (ACD) (Baxter, Deerfield, Ill.). After incubation for 15 minutes at room temperature, the supernatant was carefully layered onto Ficoll-Hypaque (Lymphoprep, Myegaard, Norway). Mononuclear cells (MNC) were collected at the interface after centrifugation at 380 g for 15 minutes at room temperature, washed twice in PBS and resuspended in Iscove's medium supplemented with 10% human AB^+ serum. During all further separation of cells, the cell suspensions were kept in siliconized test tubes (Vacuette, Greiner, Stockholm).
The MNC were further separated into lymphocyte and monocyte (MO) populations using the counter-current centrifugal elutriation (CCE) technique originally described by Yasaka and co-workers (Yasaka, T. et al., J. Immunol., 127:1515) with modifications as described in Hansson, M., et al. (J. Immunol., 156: 42 (1996); hereby incorporated by reference). Briefly, the sedimentation rate of cells in a spinning rotor was balanced by a counter-directed flow through the chamber. By slowly increasing the flow rate, fractions of cells of well-defined sizes were collected. The MNC were resuspended in elutration buffer containing 0.5% BSA (ICN Biomedicals Inc., Aurora, Ohio) and 0.1% EDTA (VWR, Göteborg, Sweden) in buffered NaCl and fed into a Beckman J2-21 ultracentrifuge with a JE-6B rotor (Bechman Coulter Inc., Fullerton, Calif.) at 2100 rpm. A fraction with >90% MO was obtained at a flow rate of 19 ml/min. A lymphocyte fraction enriched for NK-cells (CD3^−/56^+ phenotype) and T-cells (CD3^+/56^−) was recovered at flow rates of 14-15 ml/min. This fraction contained <3% MO and consisted of CD3ε^−/56^+ NK-cells (45-50%), CD3ε^+/56^− T-cells (35-40%), CD3ε^−/56^− cells (5-10%), and CD3ε^+/56^+ cells (1-5%), as judged by flow cytometry. In some experiments, dynabeads (Dynal A/S, Oslo, Norway) coated with anti-CD56 were used to obtain purified lymphocyte preparations of T-cells, as described in detail by Hansson, M., et al., incorporated above.
Briefly, lymphocytes were incubated overnight with autologous mononuclear phagocytes in the presence or absence of catalase (200 U/ml), histamine ([…]) or DPI (3 μM).
Briefly, lymphocytes, pretreated with PJ34 (250 ηM), Z-VAD.fmk (100 μM) or medium, were subjected to mononuclear phagocytes at different Mo/Ly ratios (FIG. 5A) or to different concentrations of H2O2 (FIG. 5C). FIGS. 5A-5D illustrate that PJ34 protected lymphocytes from cell death induced by phagocytes ([…], ratio 1:1, p<0.05) and hydrogen peroxide (FIGS. 5C and 5D, 250 μM, p<0.001).

NK cells [2] = settings: histamine and IL-2; cited from earlier work
[3] = system: herpes simplex virus (HSV); settings: cited from earlier work
NK cells [4] = settings: cited from earlier work
lymphocytes = experiment: Altered mitochondrial transmembrane potential (Mitochondrial Membrane Sensor Kit) and To-Pro-3 staining; format: cell-based, human; settings: H2O2 250 μM or mononuclear phagocytes; PJ34 250 μM as printed
Procedure: A Mitochondrial Membrane Sensor Kit (BD Clontech) was used to identify cells with altered mitochondrial transmembrane potential according to the manufacturer's protocol.
Briefly, lymphocytes exposed to hydrogen peroxide (250 μM) were assayed for altered mitochondrial transmembrane potential and plasma membrane integrity at various time points. Depolarization of the Ψm is seen as an increase in green fluorescence (mitosensor monomers).

human lymphocytes = experiment: Large-scale DNA fragmentation, pulsed-field gel electrophoresis; format: cell-based; settings: cells treated with Z-VAD.fmk and 250 μM H2O2, 16 hours
Procedure: Translocation of AIF to the nucleus has been associated with large-scale DNA fragmentation. The observed accumulation of nuclear AIF after challenge with H2O2 led to investigation as to whether large-scale DNA fragmentation accompanied lymphocyte cell death. To that end, lymphocytes were exposed to H2O2, cast into agarose plugs and analyzed using pulsed-field gel electrophoresis. Briefly, human lymphocytes were exposed to 250 μM H2O2 and incubated overnight at 37° C. After 16 hours, the cells were washed twice with PBS and resuspended in PBS. Cells were mixed with an equal volume of 2% low melting point agarose and cast into agarose plugs. After solidifying, plugs were incubated overnight at 56° C. in a buffer containing 0.2% Sodium deoxycholate and 0.5% N-lauroyl sarcosine supplemented with 0.5 mg/ml proteinase K.

Row | Compound | development of lung metastatic foci (melanoma cell lines) | protection of lymphocytes from phagocyte-induced cell death (FIG. 1) ([1]; overnight with autologous mononuclear phagocytes, catalase 200 U/ml, histamine, DPI 3 μM, p<0.001, n=4) | granulocyte mediated NK cell suppression (NK cells [2]) | survival time, combination ([3]; combination of histamine and IL-2) | survival time ([3]; single dose of histamine) | monocyte mediated NK cell suppression (NK cells [4]; histamine and IL-2) | NK cell cytotoxicity (NK cells [4]; histamine and IL-2 in the presence of monocytes, relative to IL-2 only) | effect on NK mediated cytotoxicity (NK cells [4]; in the absence of monocytes) | protection of lymphocytes from phagocyte- or hydrogen peroxide-induced (oxidant/ROS-induced) cell death / apoptosis ([1]; pretreatment, PJ34 250 nM, DPQ 3 μM, Z-VAD.fmk 100 μM, overnight incubation with phagocytes or H2O2) | protection from oxidant-induced alterations of Ψm (FIG. 4) (lymphocytes) | DNA fragments on pulsed-field gel (FIG. 7) (human lymphocytes)
1 | NCCc1c[nH]cn1 [histamine] | protected | fully protected | only partially removed | synergistic effect | prolong survival time | complete or nearly complete abrogation | elevated levels of cytotoxicity | no effect or weakly suppressed |  |  | 
2 | Z-VAD.fmk |  |  |  |  |  |  |  |  | only partially protected; also recorded: failed to protect | failed to display any significant protective effect | distinct band (approx. 50 kb)
